Consider one compound from article PMC7226045, “Ensartinib (X-396) Effectively Modulates Pharmacokinetic Resistance Mediated by ABCB1 and ABCG2 Drug Efflux Transporters and CYP3A4 Biotransformation Enzyme” (Cancers, 2020).

One data set concerns MDCKII-par cells. The data set can be described thus: substrate accumulation in control MDCKII-par cells. The settings on record: hoechst 33342, calcein AM, daunorubicin, mitoxantrone. The format is cell-based, canine. The procedure:
Cellular accumulation assay with hoechst 33342 and calcein AM was performed as described previously. Briefly, MDCKII-par, MDCKII-ABCB1, MDCKII-ABCG2, and MDCKII-ABCC1 cells were seeded at densities of 5.0 × 10^4, 5.0 × 10^4, 5.5 × 10^4, and 6.0 × 10^4 cells/well, respectively, on a transparent 96-well plate and grown to full confluence for 24 h under standard conditions. The cells were then washed twice with 1 × PBS, after which was added either a dilution of ensartinib in Opti-MEM (1, 5, 10, 25, or 50 µM) or a specific inhibitor to act as a positive control (1 µM LY335979, 1 µM Ko143, or 25 µM MK-571 for ABCB1, ABCG2, or ABCC1, respectively). […] The intracellular levels of the substrates were then determined at 1 min intervals for 30 min using a microplate reader (Infinite M200 Pro, Tecan, Männedorf, Switzerland). Fluorescence was monitored in bottom mode using excitation/emission wavelengths of 350/465 and 485/535 nm for hoechst 33342 and calcein AM, respectively.
The flow-cytometric inhibitory assay with daunorubicin and mitoxantrone was performed with minor modifications as described previously. […] Samples were then transferred into test-tubes and kept on ice until their fluorescence could be measured using a flow cytometer (BD FACSCanto II, Allschwil, Switzerland). […]

Details of data set [1]: method as in doi:10.1200/JCO.2018.36.15_suppl.e21122. As to conditions: in vivo pharmacokinetic studies in humans (patients); cited from earlier work.
For the next data set, the target named is T1, CYP2D6 (Homo sapiens, UniProt P10635).
T1 construct: purchased Thermo Fisher Scientific; host or cells: insect microsomal fractions
T1 sequence (P10635 whole entry): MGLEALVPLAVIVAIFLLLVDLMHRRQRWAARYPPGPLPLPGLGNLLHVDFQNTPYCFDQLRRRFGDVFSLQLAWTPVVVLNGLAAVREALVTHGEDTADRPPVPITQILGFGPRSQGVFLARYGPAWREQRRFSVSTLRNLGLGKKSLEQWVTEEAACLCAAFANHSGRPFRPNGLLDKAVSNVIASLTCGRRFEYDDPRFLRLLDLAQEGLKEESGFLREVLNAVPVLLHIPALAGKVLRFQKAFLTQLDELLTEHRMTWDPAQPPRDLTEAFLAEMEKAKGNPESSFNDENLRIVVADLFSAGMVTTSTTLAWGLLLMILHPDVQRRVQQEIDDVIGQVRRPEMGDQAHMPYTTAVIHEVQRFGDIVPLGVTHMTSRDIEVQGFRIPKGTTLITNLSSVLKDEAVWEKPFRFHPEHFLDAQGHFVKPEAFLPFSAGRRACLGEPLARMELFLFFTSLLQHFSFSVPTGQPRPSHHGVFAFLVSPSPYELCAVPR
Kind of data set: Vivid CYP screening kit, recombinant CYP2D6. Type of data set: biochemical. As to conditions: recombinant enzyme. Here is the method: (§1) CYP inhibitory assay was performed as described previously. Experiments were performed with commercial Vivid CYP screening kits containing insect microsomal fractions enriched with a specific human CYP isoform, human CYP reductase, and in some cases, human cytochrome b5. The potential inhibitory activity of ensartinib toward CYP1A2, CYP2B6, CYP2C8, CYP2C9, CYP2C19, CYP2D6, CYP3A4, and CYP3A5 (i.e., all CYP isoforms that drug regulatory authorities recommend for testing of inhibition by new molecular entities) was then examined. Experiments were performed using a kinetic mode in black 96-well plates according to the manufacturer´s instructions. Briefly, 5-point serial dilutions of ensartinib or the model inhibitor recommended by the manufacturer in buffer were transferred into the wells, then a master mix consisting of a CYP isoenzyme with an NADPH regeneration system in buffer was added. After a 10 min pre-incubation, the reaction was initiated by adding a mixture of NADP^+ and the appropriate Vivid substrate, after which fluorescence was measured at 1 min intervals for 60 min using an Infinite M200 Pro microplate reader (Tecan, Männedorf, Switzerland). The enzyme concentration and incubation interval used for data evaluation (15 min) placed the systems within the linear regions of the appropriate reaction velocity curves. […]

The test system of a further data set is A431-parent cells. The data set can be described thus: MTT proliferation assay, A431-parent. Type of data set: cell-based. The settings on record: Homo sapiens, 48 h, read-out: IC50, sensitivity to ensartinib. Here is the method:
MTT proliferation assay was performed as described previously.

A further data set addresses T2, CYP3A5 (Homo sapiens, UniProt P20815).
T2 construct: purchased Thermo Fisher Scientific; host or cells: insect microsomal fractions
Kind of data set: Vivid CYP screening kit, recombinant CYP3A5. Type of data set: biochemical. As to conditions: recombinant enzyme, 15 min incubation, absolute IC50; read-out: CYP3A5 inhibition IC50. Here is the method:
as §1

A short description of data set [2]: XTT proliferation / drug combination assay, HL60-ABCB1. The settings on record: human, HL60-ABCB1 cells. Here is the method: (§2) The MTT method is not readily adapted for use with suspension cell cultures, therefore the XTT assay was used to assess the proliferation of HL60 cells. Briefly, HL60-par, HL60-ABCB1, HL60-ABCG2, and HL60-ABCC1 cells were seeded at 2 × 10^4 cells/well in 96-well culture plates. Immediately after seeding, dilutions of the tested drugs or drug combinations were added to the cells. The plates were then incubated under standard conditions (37 °C, 5% CO2) for 48 h, after which XTT solution in PBS (1 mg/mL) and phenazine methosulfate (7.50 µg/mL) were added to the cells and the plates were incubated for another 5 h. Finally, the cells’ absorbance was measured at 450 nm using a microplate reader (Infinite M200, Tecan, Salzburg, Austria). This method was used to assess the effect of ABC transporters on sensitivity to ensartinib and in drug combination assays.
(§3) Experiments focusing on the modulation of ABC transporter-mediated resistance were performed as described previously. The parent MDCKII and HL60 cells and their ABCB1-, ABCG2-, and ABCC1-overexpressing counterparts were seeded at the densities specified above onto 96-well culture plates and cultured for 24 h. The medium was subsequently replaced with serial dilutions of ensartinib alone or with various concentrations of a model MDR-susceptible cytostatic agent (daunorubicin or mitoxantrone) with or without 10 µM ensartinib. After 48 h incubation, the cells’ viability was determined as described above. In addition to performing IC50-shift analyses, the viability measurements were converted to FA (fraction of cells affected) values and the effects of drug combinations were quantified using the Chou-Talalay combination index (CI) method as implemented in CompuSyn 3.0.1 (ComboSyn Inc., Paramus, NJ, USA). The effects of concomitantly administered drugs were classified as synergistic (CI < 0.9), additive (0.9 < CI < 1.1), or antagonistic (CI > 1.1) based on the computed CI values.

Another data set has as its system HL60-ABCB1 cells. The data set is described as above. As to conditions: HL60-ABCB1. Here is the method: as §2, §3

T2 sequence (P20815 whole entry): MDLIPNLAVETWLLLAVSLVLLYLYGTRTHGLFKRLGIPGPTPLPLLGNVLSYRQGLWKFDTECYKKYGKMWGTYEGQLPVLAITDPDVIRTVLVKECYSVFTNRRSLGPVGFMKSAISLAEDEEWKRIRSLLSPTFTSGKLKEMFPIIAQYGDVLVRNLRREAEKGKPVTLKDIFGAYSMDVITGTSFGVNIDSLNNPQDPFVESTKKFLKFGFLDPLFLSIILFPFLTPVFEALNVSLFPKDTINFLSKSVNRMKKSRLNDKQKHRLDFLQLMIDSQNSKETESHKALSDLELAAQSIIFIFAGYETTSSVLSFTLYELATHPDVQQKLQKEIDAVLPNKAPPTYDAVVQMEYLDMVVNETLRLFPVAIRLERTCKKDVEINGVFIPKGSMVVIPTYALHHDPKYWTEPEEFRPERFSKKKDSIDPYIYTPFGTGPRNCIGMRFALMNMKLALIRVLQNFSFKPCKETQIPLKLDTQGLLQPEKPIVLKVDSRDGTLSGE

Take `C[C@@H]1CN(C(=O)c2ccc(NC(=O)c3cc(O[C@H](C)c4c(Cl)ccc(F)c4Cl)c(N)nn3)cc2)C[C@H](C)N1` [ensartinib, Ensartinib]: in the data set on MDCKII-par cells, the “effect on the accumulation of any substrate in control cells” value is on record as “no significant effect”. Further, in data set [1], the Cmax is 1000 nM. In addition, at CYP2D6, the “inhibitory effect on CYP2D6 (in words)” value is listed as “no appreciable inhibitory effect”. For the same compound, the IC50 was greater than 50 µM on CYP2D6 (15 min incubation, absolute IC50, read-out: CYP2D6 inhibition IC50); 2.69 µM in the data set with A431-parent cells; 19.1 µM at CYP3A5. The IC50 at 48 h in data set [2] turned out to be 29.6 µM. Also, the “combination effect (Chou-Talalay combination index)” value in the data set with HL60-ABCB1 cells (10 µM ensartinib with daunorubicin) is listed as “synergistic (synergistic (CI < 0.9))”. Moreover, the “RR (reversal ratio)” value in the data set with HL60-ABCB1 cells (daunorubicin, IC50 single drug / IC50 combined with 10 µM ensartinib) was determined as 22.1.
